Molecules are shown by their SMILES.

Results on 1 compound are retold here after patent EP0028117A1, “Guanidine compounds, process for preparing them and compositions containing them” (SMITH KLINE & FRENCH LABORATORIES LIMITED, priority 1979, dated 1981).

Experiment [1] concerns histamine H2-receptors. As to the kind of experiment: Inhibition of histamine-stimulated gastric acid secretion from lumen-perfused stomachs of anaesthetised rats. The experiment is classed as in vivo. Conditions: i.v., lumen-perfused stomachs of rats anaesthetised with urethane.
The target of experiment [2] is T1, histamine H2-receptors (Cavia porcellus, UniProt P47747).
T1 construct: histamine-induced tachycardia in the isolated guinea pig atrium; from tissue; host or cells: isolated guinea pig atrium
T1 sequence (P47747 whole entry): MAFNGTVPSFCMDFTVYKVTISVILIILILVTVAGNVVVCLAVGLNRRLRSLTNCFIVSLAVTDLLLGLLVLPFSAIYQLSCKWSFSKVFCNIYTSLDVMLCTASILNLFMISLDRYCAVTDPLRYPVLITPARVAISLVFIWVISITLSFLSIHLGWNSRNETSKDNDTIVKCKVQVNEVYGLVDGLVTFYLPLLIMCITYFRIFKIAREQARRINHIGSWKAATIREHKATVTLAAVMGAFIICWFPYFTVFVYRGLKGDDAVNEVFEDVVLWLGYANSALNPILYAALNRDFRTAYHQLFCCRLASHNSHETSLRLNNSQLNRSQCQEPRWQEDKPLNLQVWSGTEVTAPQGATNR
As to the kind of experiment: Inhibition of histamine-induced tachycardia in the isolated guinea pig atrium. The following applies: read-out: effective dose producing 50% inhibition of the histamine-induced tachycardia. From the text: This procedure is referred to in Ash and Schild, Brit. J. Pharmac. Chemother., 1966. 27. […] For example, they inhibit the actions of histamine on the isolated guinea pig atrium.

Regarding `N=C(N)Nc1nc(CSCCNc2[nH]ccc2[N+](=O)[O-])cs1` [Example 1, 2-[2-(2-Guanidino-4-thiazolylmethylthio)ethylamin]-3-nitropyrrole], the “doses causing 50% inhibition of maximal acid secretion” value in the experiment with histamine H2-receptors [1] is listed as “less than 0.1 micromole kg^-1”. Moreover, the IC50 on histamine H2-receptors [2] is less than 1 µM.
